Experimental data: patent publication US12102104B2, “Carbonation sensation enhancing agent for foods and beverages having carbonate stimulation” (Ogawa & Co., Ltd., priority 2018, dated 2024)

Assays:
[1] = tested on: expert panelists; assay: Test Example 3: equivalent carbon dioxide gas pressure by paired comparison; assay type: in vivo, human; details: base 1.3 kg/cm^2, polygodial 10 ppb (Example 7)
Text: The strength of carbonate stimulation of the carbonated water of Example 7 prepared by adding the Persicaria hydropiper extract of Production Example 1 to the carbonated water for evaluation of Preparation Example 1 (1.3 kg/cm^2) and the strength of carbonate stimulation of the carbonated waters described in Table 3 (1.4 kg/cm^2, 1.6 kg/cm^2, 1.9 kg/cm^2) separately prepared as a control were compared by 18 to 20 expert panelists. The number of panelists who judged that the carbonated water of Example 7 had strong carbonation and the selectivity of the carbonated water of Example 7 are shown in Table 3.
Furthermore, the relation between the concentration of carbon dioxide gas in the control product and the selectivity of the carbonated water of Example 7 was plotted (see FIG. 1).
Thus, it is considered that addition of polygodial has the same effect as increasing the pressure of carbon dioxide gas by 0.3 kg/cm^2.

[2] = tested on: expert panelists; assay: Test Example 2: sensory comparison of polygodial with known carbonation sensation enhancing agents; assay type: in vivo, human
Procedure: Sensory evaluation of the samples of Example 4 and Comparative Examples 3 to 11 was performed by 10 expert panelists based on the following Evaluation criteria 1 to 3 using the carbonated water for evaluation of Preparation Example 1 as a control.
[Evaluation Criteria 1] (Strength of Carbonate Stimulation)
(Mode of Generation of Carbonate Stimulation)
Mode of generation of carbonate stimulation was defined as follows and the timing when the highest effect was felt was selected. The timing that won a majority (6 panelists or more) was regarded as the mode of generation of carbonate stimulation of the substance. In the case of a tie (5 panelists for each), the result was referred to as middle.
Initial: stimulation felt immediately after the sample was put in one's mouth. The impact at the moment when one took the sample.
Last: stimulation felt after swallowing the sample. Aftertaste and feeling when going down. Delayed effect.
[Evaluation Criteria 3] (Characteristics of Flavor)
Majority opinions were obtained from panelists' free descriptions of characteristics of flavor they felt.

[3] = tested on: expert panelists; assay: Test Example 1: sensory evaluation of carbonated water with polygodial; assay type: in vivo, human
Procedure: Carbonated water for evaluation was prepared by diluting commercially available carbonated water (pressure of carbon dioxide gas before opening 3.0 kg/cm^2) with water such that the pressure of carbon dioxide gas was 1.3 kg/cm^2.
Polygodial (manufactured by Wako Pure Chemical Industries, Ltd.) was added to the carbonated water for evaluation of Preparation Example 1 such that the concentration was as shown in Table 1 described later and this was referred to as Comparative Examples 1 and 2, and Examples 1 to 6.
20 ppm of the Persicaria hydropiper extract of Production Example 1 was added to the carbonated water for evaluation of Preparation Example 1 and this was referred to as Example 7.
0.05 ppm of Tasmannia lanceolata oil (manufactured by ESSENTIAL OILS OF TASMANIA PTY LTD, polygodial content 20%) was added to the carbonated water for evaluation of Preparation Example 1 and this was referred to as Example 8. […]
Sensory evaluation was performed by 10 expert panelists based on the following Evaluation criteria using a product to which polygodial was not added as a control. For the strength of an offensive taste and odor, the average of the score of the 10 panelists was calculated and determined as the result of evaluation. […]

[4] = Decomposition of polygodial on distillation; assay type: physicochemical; details: yield significantly reduced
Text: Thus, distillation needs to be performed under reduced pressure using a known vacuum pump such as oil rotary pump, a mechanical booster pump and a diffusion pump.

Compound | Increase of pressure of carbon dioxide gas having the same effect as addition [1] | Timing of the effect of enhancing carbonation sensation [2] | Enhancement of carbonation sensation ([3]; polygodial 0.01 ppb) | Enhancement of carbonation sensation and pungency ([3]; polygodial 400 ppb) | Evaporating temperature at which polygodial is decomposed [4]
CC1(C)CCC[C@]2(C)[C@@H](C=O)C(C=O)=CC[C@@H]12 [polygodial, (1R,4aS,8aS)-5,5,8a-trimethyl-1,4,4a,6,7,8-hexahydronaphthalene-1,2-dicarboxaldehyde] | 0.3 kg/cm^2 | immediate effect | not enhanced | pungency appeared with enhanced carbonation sensation | more than 150 °C
C/C=C/C=C\CC/C=C/C(=O)NCC(C)C [spilanthol, (2E,6Z,8E)-N-Isobutyl-2,6,8-decatrienamide, reference compound] | – | relatively delayed | – | – | –
